Patent US4681699A, “Bisazo dyes and their use in liquid crystalline materials” (BASF Aktiengesellschaft, priority 1984, dated 1987)

Legend:
[1] = Solubility L of dye in liquid crystal mixture at room temperature (saturated solution, comparison of extinctions); assay type: physicochemical
Protocol: (§1) The degree of order S measured at room temperature, the solubility L likewise determined at room temperature, and the Merck liquid crystal mixtures used are summarized in Table 1 for Examples 1, 4, 5, 8, 12, 15 and 18.
(§2) The values for the degree of order and the solubility which have been measured at room temperature in ZLI 2452 are summarized in Table 2 for some of the Examples 19-46.
The solubility was determined as described below. 50 mg of the particular dye was stirred for 1 week at room temperature in 1 ml of liquid crystal, the saturated solution was centrifuged off from the residue, and the solubility was determined by comparison of extinctions.

[2] = Degree of order S of dye in nematic liquid crystal mixture (dichroic ratio CR, homogeneously oriented measuring cell); assay type: physicochemical
Protocol: as §1, §2
The degree of order S was determined on the basis of the known equation [formula] in a commercial measuring cell with a homogeneous orientation (polyimide).The dichroic ratio CR was determined by measuring the extinctions E^.parallel. (measured with light polarized parallel to the preferred direction of the nematic phase) and E^.perp. (measured with light polarized perpendicular to the preferred direction of the nematic phase) and using the relationship CR=E^.parallel. /E^.perp., the dye concentrations being chosen so that E^.parallel. was from 1 to 2. The measurements were carried out using an Acta CIII spectrophotometer from Beckmann.

[3] = liquid crystal mixture ZLI 1840
[4] = liquid crystal mixture ZLI 1957/5
[5] = liquid crystal mixture ZLI 2452 (Table 1)
[6] = liquid crystal mixture ZLI 2585

Row | SMILES | Solubility L (at room temperature) ([1]; ZLI 2452 (Table 2)) | Degree of order S (at room temperature) ([2]; ZLI 2452 (Table 2)) | also measured
1 | CCCCSc1nsc(N=Nc2cc(C)c(N=Nc3ccc(N(C)C)cc3C)cc2C)n1 [Example 4] | – | – | Solubility L (at room temperature) [1, 3]: 0.9%; Degree of order S (at room temperature) [2, 3]: 0.73
2 | CCCCC1CCC(c2ccc(CNc3ccc(N=Nc4cc(C)c(N=Nc5nc(SCC(CC)CCCC)ns5)cc4C)c4ccccc34)cc2)CC1 (stereo not drawn) [Example 46] | 0.8% | 0.80 | –
3 | CCNc1ccc(N=Nc2cc(C)c(N=Nc3nc(SC)ns3)cc2C)c2ccccc12 [Example 12] | – | – | Solubility L (at room temperature) [1, 3]: 0.7%; Degree of order S (at room temperature) [2, 3]: 0.72
4 | CCCCC1CCC(c2ccc(CNc3ccc(N=Nc4ccc(N=Nc5nc(SCC(CC)CCCC)ns5)c(C)c4)c4ccccc34)cc2)CC1 (stereo not drawn) [Example 45] | 2.4% | 0.81 | –
5 | CCCCCCCCSc1nsc(N=Nc2cc(C)c(N=Nc3ccc(NCc4ccc(C5CCC(CCCC)CC5)cc4)c4ccccc34)cc2C)n1 (stereo not drawn) [Example 15] | – | – | Solubility L (at room temperature) [1, 4]: 1.4%; Solubility L (at room temperature) [1, 5]: 2.8%; Solubility L (at room temperature) [1, 6]: 2.8%; Degree of order S (at room temperature) [2, 4]: 0.77; Degree of order S (at room temperature) [2, 5]: 0.81; Degree of order S (at room temperature) [2, 6]: 0.74
6 | CCCCCCCCSc1nsc(N=Nc2ccc(N=Nc3ccc(NCc4ccc(C5CCC(CCCC)CC5)cc4)c4ccccc34)cc2)n1 (stereo not drawn) [Example 18] | – | – | Solubility L (at room temperature) [1, 4]: 0.9%; Degree of order S (at room temperature) [2, 4]: 0.79
7 | CCCCCCCCSc1nsc(N=Nc2cc(C)c(N=Nc3ccc(NCc4ccc(CCCCC)cc4)c4ccccc34)cc2C)n1 [Example 42] | 0.4% | 0.80 | –
8 | CCCCCCCCCCCCNc1ccc(N=Nc2cc(C)c(N=Nc3nc(SC)ns3)cc2C)c2ccccc12 [Example 26] | 1.3% | 0.76 | –
9 | CCCCCCCCSc1nsc(N=Nc2cc(C)c(N=Nc3ccc(Nc4ccc(CCCC)cc4)c4ccccc34)cc2C)n1 [Example 43] | 3.2% | 0.71 | –
10 | CCCCCCCCSc1nsc(N=Nc2cc(C)c(N=Nc3ccc(NCCc4ccccc4)c4ccccc34)cc2C)n1 [Example 41] | 0.6% | 0.74 | –
11 | CCCCCCCCCCCCNc1ccc(N=Nc2cc(C)c(N=Nc3nc(SCCCCCCC)ns3)cc2C)c2ccccc12 [Example 35] | 0.6% | 0.79 | –
12 | CCCCCCCCNc1ccc(N=Nc2cc(C)c(N=Nc3nc(SCCCCCCCC)ns3)cc2C)c2ccc(C)nc12 [Example 19] | 0.6% | 0.75 | –
13 | CCCCCCCCCCCCN(C)c1ccc(N=Nc2cc(C)c(N=Nc3nc(CCCCCCC)ns3)cc2C)c2ccccc12 [Example 22] | 1.7% | 0.77 | –
14 | CCCCC(CC)CSc1nsc(N=Nc2cc(C)c(N=Nc3ccc(NCC)c4ccccc34)cc2C)n1 (stereo not drawn) [Example 38] | > 5% | 0.74 | –
15 | CCCCCCCCCCCCNc1ccc(N=Nc2cc(C)c(N=Nc3nc(SCCCCCCCCCCCC)ns3)cc2C)c2ccccc12 [Example 40] | 1.2% | 0.77 | –
16 | CCCCC1CCC(c2ccc(CNc3ccc(N=Nc4ccc(N=Nc5nc(SCC(CC)CCCC)ns5)cc4)c4ccccc34)cc2)CC1 (stereo not drawn) [Example 44] | 2.6% | 0.81 | –
17 | CCCCCCCCSc1nsc(N=Nc2cc(C)c(N=Nc3ccc(N(C)C)cc3C)cc2C)n1 [Example 8] | – | – | Solubility L (at room temperature) [1, 4]: 1.5%; Degree of order S (at room temperature) [2, 4]: 0.73; Degree of order S (at room temperature) [2, 5]: 0.76
18 | CCCCCCCCNc1ccc(N=Nc2cc(C)c(N=Nc3nc(SCCCCCCCC)ns3)cc2C)c2ccccc12 [Example 36] | 0.8% | 0.77 | –
19 | Cc1cc(N=Nc2ccc(N(C)C)cc2C)c(C)cc1N=Nc1nc(SCc2ccccc2)ns1 [Example 5] | – | – | Solubility L (at room temperature) [1, 3]: 0.3%; Degree of order S (at room temperature) [2, 3]: 0.74
20 | CCCCCCCCSc1nsc(N=Nc2ccc(N=Nc3ccc(N(C)CCCC)cc3)cc2)n1 [Example 1] | – | – | Solubility L (at room temperature) [1, 4]: 1.5%; Degree of order S (at room temperature) [2, 4]: 0.72
